Experiment [1] concerns the target T1, KMT9 (Homo sapiens, UniProt Q9Y5N5).
T1 sequence (Q9Y5N5 1-214): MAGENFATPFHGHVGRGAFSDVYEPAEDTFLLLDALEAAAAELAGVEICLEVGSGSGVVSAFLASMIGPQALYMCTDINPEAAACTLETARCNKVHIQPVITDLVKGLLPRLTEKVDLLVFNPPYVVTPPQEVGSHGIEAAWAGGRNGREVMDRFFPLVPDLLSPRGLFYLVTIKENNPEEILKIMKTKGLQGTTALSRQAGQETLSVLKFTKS
T1 sequence (Q9UI30 1-120 isoform Q9UI30-2 partner): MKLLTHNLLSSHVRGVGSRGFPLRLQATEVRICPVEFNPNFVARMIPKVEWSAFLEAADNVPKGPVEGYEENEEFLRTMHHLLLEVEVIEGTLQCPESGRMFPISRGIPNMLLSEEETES
The experiment in a line: Microscale thermophoresis (MST) KMT9 binding. The note with it: His-tag labelled KMT9 20 nM. The method, boiled down:
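His-tagged KMT9 (20 nM), RED-Tris-NTA labelled, titrated with varying compound concentrations in 25 mM HEPES pH 7.5, 100 mM NaCl, 1 mM DTT, 0.05% Tween. MST at 40% MST and 100% LED power, Nano-RED excitation; Kd binned A ≤10 nM, B 10–100, C 100–1000, D >1000 nM.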

In experiment [2] the target is T1, KMT9. In words: KMT9 thermal shift assay (SyproOrange). It counts as binding. The note with it: 2 μM KMT9. The method, boiled down:
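Recombinant KMT9 was incubated with compound and SyproOrange at 25° C in 50 mM BTP pH 8.5, 1 mM MgCl2, 1 mM DTT. It was then heated from 20° C to 95° C at 1° C per 15 s with fluorescence read each step. Tm came from a Boltzmann sigmoidal fit; ΔTm relative to DMSO control, binned in 5 K ranges.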

The target of experiment [3] is T1, KMT9. The experiment in a line: KMT9 methyltransferase inhibition assay, MTaseGlo luminescence (from entry 155). The class given is biochemical. The note with it: 100 nM KMT9, 5 μM ETF1, 1 μM SAM. A digest of the protocol:
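KMT9 (100 nM final) pre-incubated with inhibitor for 15 min at room temperature, then reacted with 5 μM ETF1 and 1 μM SAM for 2 h at 30° C. at 2% DMSO final. MTaseGlo luminescence read after 60 min detection; IC50 reported in four potency bins.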

Setting [4] is: ΔTm class, 500 uM compound, read-out: Thermal shift.
Setting [5] is: IC50 class, MTaseGlo procedure (entries from 155 on), read-out: Inhibition.
The mark [6] stands for this setting: 500 µM compound, read-out: Thermal shift (ΔTm).
The mark [7] stands for this setting: MTaseGlo procedure (entries from 155), read-out: Inhibition (IC50).

Like-named read-outs stand apart in the source and are kept apart here. A value given as a limit tells only on which side of the number the result lay.

With `Nc1ncnc2c1ccn2[C@@H]1C[C@H](c2cccc(-c3cccnc3)c2)[C@@H](O)[C@H]1O` [Compound 649, (1R,2S,3R,5R)-3-(4-amino-7H-pyrrolo[2,3-d]pyrimidin-7-yl)-5-(3-(pyridin-3-yl)phenyl)cyclopentane-1,2-diol], the Kd in experiment [1] (Kd class, read-out: MST) is above 1000 nM. The ΔTm at 500 µM in experiment [2] (setting [4]) is at most 10 °C. In addition, the IC50 in experiment [3] (setting [5]) was above 10 µM.

Turning to `Nc1ncnc2c1ccn2[C@@H]1C[C@H](c2cccc(-c3cnsc3)c2)[C@@H](O)[C@H]1O` [Compound 650, (1R,2S,3R,5R)-3-(4-amino-7H-pyrrolo[2,3-d]pyrimidin-7-yl)-5-(3-(isothiazol-4-yl)phenyl)cyclopentane-1,2-diol], in experiment [1] (Kd class, read-out: MST), the Kd lay in the range of 100 to 1000 nM. In addition, the ΔTm at 500 µM in experiment [2] (setting [4]) is at most 10 °C. The IC50 in experiment [3] (setting [5]) is above 10 µM.

On to `O[C@@H]1[C@H](O)[C@@H](C2=CCCN(CC(F)(F)F)C2)C[C@H]1n1cc(-c2nc(Cc3ccccc3)cs2)c2cnc(Cl)nc21` [Compound 651, (1R,2S,3R,5R)-3-[5-(4-Benzyl-1,3-thiazol-2-yl)-2-chloropyrrolo[2,3-d]pyrimidin-7-yl]-5-[1-(2,2,2-trifluoroethyl)-5,6-dihydro-2H-pyridin-3-yl]cyclopentane-1,2-diol], for which the Kd in experiment [1] (Kd class, read-out: MST) was above 1000 nM. Moreover, the ΔTm at 500 µM in experiment [2] (setting [4]) was at most 10 °C. For the same molecule, the IC50 in experiment [3] (setting [5]) is above 10 µM.

Take `Nc1ncnc2c1ccn2[C@@H]1C[C@H](c2cccc(-c3cn[nH]c3)c2)[C@@H](O)[C@H]1O` [Compound 652, (15,2R,3R,5R)-3-(3-(1H-pyrazol-4-yl)phenyl)-5-(4-amino-7H-pyrrolo[2,3-d]pyrimidin-7-yl)cyclopentane-1,2-diol]: the Kd in experiment [1] (Kd class, read-out: MST) is above 1000 nM. Further, the ΔTm at 500 µM in experiment [2] (setting [4]) is at most 10 °C. The IC50 in experiment [3] (setting [5]) was above 10 µM.

As for `Nc1ncnc2c1ccn2[C@@H]1C[C@H](c2cccc(-c3cncs3)c2)[C@@H](O)[C@H]1O` [Compound 653, (1R,2S,3R,5R)-3-(4-amino-7H-pyrrolo[2,3-d]pyrimidin-7-yl)-5-(3-(thiazol-5-yl)phenyl)cyclopentane-1,2-diol], in experiment [1] (Kd class, read-out: MST), the Kd is above 1000 nM. In addition, the ΔTm at 500 µM in experiment [2] (setting [4]) is at most 10 °C. Besides, the IC50 in experiment [3] (setting [5]) is above 10 µM.

Take `Nc1ncnc2c1ccn2[C@@H]1C[C@H](c2cccc(-c3cscn3)c2)[C@@H](O)[C@H]1O` [Compound 654, (1R,2S,3R,5R)-3-{4-aminopyrrolo[2,3-d]pyrimidin-7-yl}-5-[3-(1,3-thiazol-4-yl)phenyl]cyclopentane-1,2-diol]: in experiment [1] (Kd class, read-out: MST), the Kd was above 1000 nM. For the same molecule, the ΔTm at 500 µM in experiment [2] (setting [4]) is at most 10 °C. The IC50 in experiment [3] (setting [5]) was above 10 µM.

For the molecule `Nc1nc(Cl)nc2c1ccn2[C@@H]1C[C@H](c2ccc(O)cc2)[C@@H](O)[C@H]1O` [Compound 655], in experiment [1] (read-out: MST (Kd)), the Kd was at most 10 nM. For the same molecule, the ΔTm at 500 µM in experiment [2] (setting [6]) was in the range of 10 to 15 °C. Besides, the IC50 in experiment [3] (setting [7]) was in the range of 0.1 to 1 µM.

As for `CNc1nc(Cl)nc2c1ccn2[C@@H]1C[C@H](c2ccc(O)cc2)[C@@H](O)[C@H]1O` [Compound 656, (1R,2S,3R,5R)-3-(2-chloro-4-(methylamino)-7H-pyrrolo[2,3-d]pyrimidin-7-yl)-5-(4-hydroxyphenyl)cyclopentane-1,2-diol], in experiment [1] (read-out: MST (Kd)), the Kd was 10 to 100 nM. Besides, in experiment [2] (setting [6]), the ΔTm at 500 µM is at most 10 °C. The IC50 in experiment [3] (setting [7]) fell in the range of 1 to 10 µM.

`CNc1ncnc2c1ccn2[C@@H]1C[C@H](c2cn[nH]c2)[C@@H](O)[C@H]1O` [Compound 657, (1R,2S,3R,5R)-3-[4-(Methylamino)pyrrolo[2,3-d]pyrimidin-7-yl]-5-(1H-pyrazol-4-yl)cyclopentane-1,2-diol]: in experiment [1] (read-out: MST (Kd)), the Kd is above 1000 nM. In addition, the ΔTm at 500 µM in experiment [2] (setting [6]) was at most 10 °C. The IC50 in experiment [3] (setting [7]) is above 10 µM.

As to `Nc1ncnc2c1ccn2[C@@H]1C[C@H](c2cn[nH]c2)[C@@H](O)[C@H]1O` [Compound 658, (1R,2S,3R,5R)-3-{4-Aminopyrrolo[2,3-d]pyrimidin-7-yl}-5-(1H-pyrazol-4-yl)cyclopentane-1,2-diol], the Kd in experiment [1] (read-out: MST (Kd)) is above 1000 nM. The ΔTm at 500 µM in experiment [2] (setting [6]) is at most 10 °C. Also, the IC50 in experiment [3] (setting [7]) is above 10 µM.
